In patent US5236928A, “Imidazole derivatives bearing acidic functional groups at the 5-position, their compositions and methods of use as angiotensin II antagonists” (Merck & Co., Inc., priority 1992, dated 1993):

Test system: BALB 3T3/H-ras
Test: BALB 3T3/H-ras inhibition activity
Assay type: cell-based

CC(C)C(C)CC[C@@H](C)C1CCN=C2C3=C(CC[C@@]21C)[C@@]1(C)CC[C@H](O)CC1CC3 (stereo partly shown) [UCA1064-B]
BALB 3T3/H-ras Inhibition Activity IC50: 3.5 µg/mL
